Source: patent US4154837A, “(Aminoalkoxy-aryl)-substituted isoquinolinones and naphthydrinones and salts thereof, and hypotensive compositions and methods employing them” (Boehringer Ingelheim GmbH, priority 1977, dated 1979)
Where two headings read alike, the source gives them in different places.

Experiments:
[1] = tested on: blood circulation of dogs; test: Effect on blood circulation (arterial blood pressure, heart rate, contractility dp/dt max) in anesthetized dogs; format: in vivo; conditions: for Decrease of contractility, duration / inhibition in vivo at 1 mg/kg / inhibition in vivo at 0.25 mg/kg: left ventricle; for inhibition in vivo at 1 mg/kg / inhibition in vivo at 0.25 mg/kg: Canis lupus familiaris, iv, read-out: Decrease of contractility dp/dt max.
Description: (1.) Effect on blood circulation: The blood circulation tests were performed on dogs with a body weight of 19-30 kg under chloralose-urethane-nembutalanesthesia (54+270+10 mg/kg i.v.). After opening the thorax in the 4th left intercostal space, artificial respiration was applied to the animals with room air by means of an Harvard-Respirator. The arterial blood-pressure was measured in an arteria carotis with a Statham-transducer; the heart rate was measured electronically from the sequence of R-peaks of the electrocardiogram. The maximum rate of pressure increase (dp/dt max) in the left ventricle was measured by means of a Konigsberg pressure-receiver and a Grass differentiation amplifier. All parameters were recorded by means of a direct-writer. For inhibition of coagulation the animals were given 10 mgm/kg of potassium polyethylenesulfonate i.v. in 20% of polydiol. The test compounds were intravenously administered to 4-6 dogs per compound.

[2] = tested on: isolated guinea pig auricle; test: effect on the force of contraction and frequency of the isolated guinea pig auricle; conditions: Cavia porcellus, 37° C.; for inhibition at 30 µg/mL: 3.10^-5 gm/ml; for inhibition at 100 µg/mL: 10^-4 gm/ml; for inhibition at 10 µg/mL: 10^-5 gm/ml; for inhibition at 3 µg/mL: 3.10^-6 gm/ml
Description: (2.) effect on the force of contraction and frequency of the isolated guinea pig auricle
In spontaneously beating isolated auricles of guinea pigs, which were kept in carbogen-aerated ([…] +5% CO2) Krebs-Henseleit-solution at a temperature of 37° C., and at predetermined concentrations of the test compounds, the maximum developed tension (isometric force of contraction) and the frequency were measured: […]

[3] = in vivo; conditions: mouse, mice, observation period 14 days
Description: (3.) determination of acute toxicity
The acute toxicity of the test compounds was determined in mice (observation period: 14 days) after oral or intravenous administration. The LD50 was calculated from the percentage of the animals that dies during the observation period after administration of varying doses: […]

[4] = read-out: Decrease in frequency
[5] = read-out: Decrease in maximum force of contraction

| Structure (SMILES) | Decrease in heart rate ([1]; 1.0 mgm/kg i.v.) [beats/min] | Decrease in heart rate, duration ([1]; 1.0 mgm/kg i.v.) [min] | Effect on average arterial blood pressure ([1]; 1.0 mgm/kg i.v.) [mm Hg] | Effect on average arterial blood pressure, duration ([1]; 1.0 mgm/kg i.v.) [min] | Decrease of contractility, duration ([1]; 1.0 mgm/kg i.v.) [min] | inhibition in vivo at 1 mg/kg ([1]; 1.0 mgm/kg i.v.) [%] | inhibition at 30 µg/mL [2, 4] [%] | inhibition at 30 µg/mL [2, 5] [%] | inhibition at 10 µg/mL [2, 4] [%] | inhibition at 10 µg/mL [2, 5] [%] | LD50 at 336 h ([3]; iv) [mg/kg] | further results |
| --- | --- | --- | --- | --- | --- | --- | --- | --- | --- | --- | --- | --- |
| COc1cc2cc(-c3ccc(OCC(O)CNC(C)(C)C)cc3)n(C)c(=O)c2cc1OC (stereo not drawn) [E, 2-methyl-3-[4-(2-hydroxy-3-tert. butylamino-propoxy)-phenyl]-6,7-dimethoxy-isoquinolin-1 (2H)-one] | 25 ± 6 | 51 | -18 ± 11 | 11 | 51 | 52 ± 8 | 31 | 54 | – | – | – | inhibition at 100 µg/mL [2, 4]: 46%; inhibition at 100 µg/mL [2, 5]: 72% |
| COc1ccc2cc(-c3ccc(OCC(O)CNC(C)C)c(OC)c3)n(C)c(=O)c2c1 (stereo not drawn) [G, 2-methyl-3-[3-methoxy-4-(2-hydroxy-3-isopropylamino-propoxy)-phenyl]-7-methoxy-isoquinolin-1 (2H)-one] | – | – | – | – | – | – | 37 | 48 | 22 | 35 | – | Decrease in heart rate ([1]; 0.25 mgm/kg i.v.): 37 ± 5 beats/min; Decrease in heart rate, duration ([1]; 0.25 mgm/kg i.v.): 54 min; Effect on average arterial blood pressure ([1]; 0.25 mgm/kg i.v.): -3 ± 2 mm Hg; Effect on average arterial blood pressure, duration ([1]; 0.25 mgm/kg i.v.): 20 min; Decrease of contractility, duration ([1]; 0.25 mgm/kg i.v.): 48 min; inhibition in vivo at 0.25 mg/kg ([1]; 0.25 mgm/kg i.v.): 48 ± 6% |
| COc1ccc(-c2cc3ccc(OC)cc3c(=O)n2C)c(OCC(O)CNC(C)(C)C)c1 (stereo not drawn) [D, 2-methyl-3-[2-(2-hydroxy-3-tert. butylamino-propoxy)-4-methoxy-phenyl]-7-methyoxy-isoquinoline-1 (2H)-one-oxalate] | – | – | – | – | – | – | 40 | 64 | – | – | – | Decrease in heart rate ([1]; 0.25 mgm/kg i.v.): 15 ± 5 beats/min; Decrease in heart rate, duration ([1]; 0.25 mgm/kg i.v.): 27 min; Effect on average arterial blood pressure ([1]; 0.25 mgm/kg i.v.): -6 ± 3 mm Hg; Effect on average arterial blood pressure, duration ([1]; 0.25 mgm/kg i.v.): 24 min; Decrease of contractility, duration ([1]; 0.25 mgm/kg i.v.): 28 min; inhibition in vivo at 0.25 mg/kg ([1]; 0.25 mgm/kg i.v.): 36 ± 13% |
| COc1ccc2cc(-c3ccc(OCC(O)CNC(C)(C)C)cc3)n(C)c(=O)c2c1 (stereo not drawn) [A, 2-methyl-3-[4-(2-hydroxy-3-tert. butylamino-propoxy)-phenyl]-7-methoxy-isoquinolin-1 (2H)-one] | 29 ± 15 | 36 | -20 ± 2 | 50 | 44 | 50 ± 10 | 30 | 82 | 23 | 50 | 62 | LD50 at 336 h ([3]; po): 460 mg/kg |
| COc1ccc2cc(CCc3ccc(OCC(O)CNC(C)C)cc3)n(C)c(=O)c2c1 (stereo not drawn) [H, 2-methyl-3-[4-(2-hydroxy-3-isopropylamino-propoxy)-phenethyl]-7-methoxy-isoquinolin-1 (2H)-one] | 34 ± 10 | 47 | -25 ± 15 | 20 | 47 | 53 ± 13 | – | – | – | – | – | – |
| COc1ccc2cc(-c3ccccc3OCC(O)CNC(C)C)n(C)c(=O)c2c1.O=C(O)C(=O)O (stereo not drawn) [B, 2-methyl-3-[2-(2-hydroxy-3-isopropylamino-propoxy)-phenyl]-7-methoxy-isoquinolin-1 (2H)-one-oxalate] | 19 ± 6 | 50 | -24 ± 2 | 41 | 47 | 51 ± 7 | – | – | – | – | 47 | – |
| COc1cc2cc(-c3ccc(OCC(O)CNC(C)C)cc3)n(C)c(=O)c2cc1OC (stereo not drawn) [F, 2-methyl-3-[4-(2-hydroxy-3-isopropylamino-propoxy)-phenyl]-6,7-dimethoxy-isoquinolin-1 (2H)-one] | 12 ± 6 | 31 | -7 ± 3 | 17 | 43 | 33 ± 6 | 29 | 43 | 22 | 30 | – | – |
| COc1ccc(-c2cc3ccc(OC)cc3c(=O)n2C)c(OCC(O)CNC(C)C)c1.O=C(O)C(=O)O (stereo not drawn) [C, 2-methyl-3-[2-(2-hydroxy-3-isopropylamino-propoxy)-4-methoxy-phenyl]-7-methoxy-isoquinolin-1 (2H)-one-oxalate] | 38 ± 2 | 50 | -17 ± 3 | 40 | 50 | 53 ± 6 | – | – | 29 | 29 | 50 | inhibition at 3 µg/mL [2, 4]: 15%; inhibition at 3 µg/mL [2, 5]: 17%; LD50 at 336 h ([3]; po): 500 mg/kg |
